Common to all, as to experiment: DTP human tumour cell line panel, 48 h
The subject of test [1] is U-251.
The subject of test [2] is SK-MEL-5.
Test [3] has as its system Malme-3M.
Test [4] has as its system TK-10.
Test [5] deals with SF-295.
Test [6] deals with A498.
Test [7] has as its system OVCAR-3.
Test [8] relates to HCT-116.
For test [9], the system named is 786-0.
The subject of test [10] is HOP-92.
The test system of test [11] is RPMI-8226.
The test system of test [12] is MCF7.
The test system of test [13] is LOX IMVI.
The subject of test [14] is SNB-75.
For test [15], the system named is KM12.
Test [16] has as its system SK-OV-3.
Test [17] deals with HCT-15.
In test [18] the test system is K562.
For test [19], the system named is COLO 205.
Test [20] concerns HCC 2998.

Results on eight compounds are retold here after ChEMBL document CHEMBL1201862, “PubChem BioAssay data set” (2004).

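Dose response: 5 concentrations. Exposure: 48 h. Format: 96-well plates. Endpoint: linear interpolation; highest concentration if not reached. At the GI50, growth is halved.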 The source made the active and inactive calls. Rule as the data show it: active = GI50 up to about 1.1 µM and inactive = higher.

Broadly, the GI50 is the concentration giving 50% growth inhibition. `CC1CCCC2(CC[N+](C)(CCC[N+](C)(C)C)CC2)C1` (stereo unspecified): the GI50 in test [1], in test [2], in [3], in test [4], in test [5] and in test [6] was > 100 µM (inactive) each time. In addition, the GI50 in test [7], in test [8], in test [9], in [10], in [11] and in [12] was > 100 µM (inactive) each time. In addition, the GI50 in test [13] is > 100 µM (inactive); in test [14], > 100 µM (inactive); in [15] it was > 100 µM (inactive); in test [16], > 100 µM (inactive); in [17], more than 100 µM; in test [18] it was > 100 µM (inactive). Moreover, in test [19], the GI50 is > 100 µM (inactive).

For `O=C(/C=C/c1ccc(Oc2cc(C(=O)/C=C/c3ccc(O)cc3)c(O)cc2O)cc1)c1ccc(O)cc1O` [RHUSCHALCONE II], the GI50 is 3.89 µM (inactive) in test [1]; 4.4 µM (inactive) in test [2]; 10.6 µM (inactive) in test [3]; 3.07 µM (inactive) in test [4]; 5.96 µM (inactive) in test [5]; 2.65 µM (inactive) in test [6]. The GI50 in [7] was 3.42 µM (inactive); in test [8] it was 2.25 µM (inactive); in test [9] it was 3.59 µM (inactive); in test [10] it was 16.5 µM (inactive); in [11] it was 2.86 µM (inactive); in test [12], 4.26 µM (inactive). For the same compound, the GI50 in test [13] was 5.47 µM (inactive); in [14] it was 4.63 µM (inactive); in test [15], 2.15 µM (inactive); in [16], 3.17 µM (inactive); in test [17] it was 5.97 µM; in test [18], 3.47 µM (inactive). In addition, the GI50 in test [19] was 2.61 µM (inactive).

Consider `ClC1=C(Cl)C2OC3C=CCC3OC2C(Cl)=C1Cl` (stereo unspecified), for which the GI50 in test [1] is 52.8 µM (inactive); in [2] it was 29.5 µM (inactive); in [4] it was > 100 µM (inactive); in [5] it was > 100 µM (inactive); in [6], > 100 µM (inactive); in [7], > 100 µM (inactive). Moreover, the GI50 was 32.9 µM (inactive) in test [8]; > 100 µM (inactive) in test [9]; 28.8 µM (inactive) in test [10]; 23 µM (inactive) in test [11]; 0.429 µM (active) in test [12]; 52 µM (inactive) in test [13]. The GI50 in test [20] is 29.4 µM (inactive); in test [15] it was 40.6 µM (inactive); in test [16], > 100 µM (inactive); in [17] it was 32.1 µM; in [18], 37.8 µM (inactive).

For `CC(C)=NN/C(=N\c1ccc(Cl)cc1)NS(=O)(=O)c1ccc(C)cc1`, the GI50 was 96.8 µM (inactive) in [1]; 60.3 µM (inactive) in test [2]; 61.2 µM (inactive) in test [3]; 50.8 µM (inactive) in [4]; 35.2 µM (inactive) in test [5]; 33 µM (inactive) in test [6]. For the same compound, the GI50 in test [7] was 31.1 µM (inactive); in test [8] it was 76.4 µM (inactive); in test [9], 62.4 µM (inactive); in test [10], 38.8 µM (inactive); in [11] it was 44.2 µM (inactive); in test [12] it was 58.5 µM (inactive). The GI50 was 87.7 µM (inactive) in test [13]; 85.7 µM (inactive) in test [15]; more than 100 µM in [17]; 69.3 µM (inactive) in test [18]; > 100 µM (inactive) in test [19].

For `COc1cc(Br)cc2cc(-c3cn4c(n3)sc3ccccc34)c(=O)oc12`, the GI50 in test [1] was 25.2 µM (inactive); in test [2] it was 28.4 µM (inactive); in test [4], 45.4 µM (inactive); in test [5] it was 19.8 µM (inactive); in [6], 21.2 µM (inactive); in test [7], 20 µM (inactive). Moreover, the GI50 is 21.3 µM (inactive) in test [8]; 25.1 µM (inactive) in test [9]; 14.7 µM (inactive) in test [10]; 21.6 µM (inactive) in test [11]; 35.6 µM (inactive) in test [12]; 18.4 µM (inactive) in test [13]. Besides, the GI50 is 30.4 µM (inactive) in [15]; 30.1 µM (inactive) in test [16]; 23.6 µM in [17]; 13.6 µM (inactive) in test [18]; 38.7 µM (inactive) in test [19].

As for `O=C(N/N=C/c1ccco1)c1cc(I)cc(I)c1O`, the GI50 in [2] was 12.4 µM (inactive); in [3] it was 22.2 µM (inactive); in test [6], 12.9 µM (inactive); in [8] it was 23.5 µM (inactive); in [9], 15 µM (inactive); in [10], 15.6 µM (inactive). The GI50 was 15.2 µM (inactive) in test [11]; 24.2 µM (inactive) in test [12]; 16.4 µM (inactive) in test [13]; 37.2 µM (inactive) in [14]; 19.7 µM in test [17]; 27.6 µM (inactive) in [18]. In addition, the GI50 in test [19] is 3.02 µM (inactive).

Turning to `COC(=O)C1=C(C(=O)OC)SC(=C2SC3=C(SC(=C4SCCS4)S3)S2)S1`, the GI50 was 93.1 µM (inactive) in test [1]; > 100 µM (inactive) in [2]; > 100 µM (inactive) in test [3]; > 100 µM (inactive) in test [4]; > 100 µM (inactive) in [5]; > 100 µM (inactive) in test [6]. For the same compound, the GI50 in test [8], in [9], in test [10], in test [11], in test [12] and in test [13] was > 100 µM (inactive) throughout. The GI50 was 0.0302 µM (active) in [14]; > 100 µM (inactive) in test [15]; > 100 µM (inactive) in test [16]; > 100 µM (inactive) in [18]; > 100 µM (inactive) in [19].

For `OC[C@H]1O[C@@H](Oc2cc(O)cc(/C=C/c3ccc(O)cc3)c2)[C@H](O)[C@@H](O)[C@@H]1O` [PICEID], the GI50 in test [1], in test [2], in test [4], in test [5], in [6] and in test [7] was > 100 µM (inactive) throughout. For the same compound, the GI50 in [8], in test [9], in [10], in test [11], in test [12] and in test [13] was > 100 µM (inactive) in each case. In addition, the GI50 in test [14] was > 100 µM (inactive); in test [15], > 100 µM (inactive); in [16], > 100 µM (inactive); in test [17], more than 100 µM; in test [18] it was > 100 µM (inactive).
